Experimental data as given in patent EP4786486A1, “PEPTIDES FOR TREATING CARDIAC DISEASES” (Universidad Complutense De Madrid, priority 2023, dated 2025).
Where no end group is shown, it is not given here.

Legend:
[1] = test system: human iPSC-derived cardiomyocytes; assay: IK1 density in hiPSC-CM infected with AAV9 encoding the peptide, patch-clamp; assay type: cell-based; details: hiPSC-CM infected 48 hours with AAV9 encoding DECA-11; vs. Ad-td-Tomato infected cardiomyocytes; P<0.05
human Nav1.5 channels = target: T1, human Nav1.5 channels (Homo sapiens, UniProt Q14524); assay: INa density, whole-cell patch-clamp in CHO cells co-transfected with Nav1.5 and the cDNA encoding the peptide; assay type: cell-based; details: vs. cells transfected only with Nav1.5 channels, various membrane potentials, P<0.05
T1 construct: expressed in transfected cells; host or cells: CHO (Chinese hamster ovary) cells
T1 sequence (Q14524 1-2015 isoform Q14524-2): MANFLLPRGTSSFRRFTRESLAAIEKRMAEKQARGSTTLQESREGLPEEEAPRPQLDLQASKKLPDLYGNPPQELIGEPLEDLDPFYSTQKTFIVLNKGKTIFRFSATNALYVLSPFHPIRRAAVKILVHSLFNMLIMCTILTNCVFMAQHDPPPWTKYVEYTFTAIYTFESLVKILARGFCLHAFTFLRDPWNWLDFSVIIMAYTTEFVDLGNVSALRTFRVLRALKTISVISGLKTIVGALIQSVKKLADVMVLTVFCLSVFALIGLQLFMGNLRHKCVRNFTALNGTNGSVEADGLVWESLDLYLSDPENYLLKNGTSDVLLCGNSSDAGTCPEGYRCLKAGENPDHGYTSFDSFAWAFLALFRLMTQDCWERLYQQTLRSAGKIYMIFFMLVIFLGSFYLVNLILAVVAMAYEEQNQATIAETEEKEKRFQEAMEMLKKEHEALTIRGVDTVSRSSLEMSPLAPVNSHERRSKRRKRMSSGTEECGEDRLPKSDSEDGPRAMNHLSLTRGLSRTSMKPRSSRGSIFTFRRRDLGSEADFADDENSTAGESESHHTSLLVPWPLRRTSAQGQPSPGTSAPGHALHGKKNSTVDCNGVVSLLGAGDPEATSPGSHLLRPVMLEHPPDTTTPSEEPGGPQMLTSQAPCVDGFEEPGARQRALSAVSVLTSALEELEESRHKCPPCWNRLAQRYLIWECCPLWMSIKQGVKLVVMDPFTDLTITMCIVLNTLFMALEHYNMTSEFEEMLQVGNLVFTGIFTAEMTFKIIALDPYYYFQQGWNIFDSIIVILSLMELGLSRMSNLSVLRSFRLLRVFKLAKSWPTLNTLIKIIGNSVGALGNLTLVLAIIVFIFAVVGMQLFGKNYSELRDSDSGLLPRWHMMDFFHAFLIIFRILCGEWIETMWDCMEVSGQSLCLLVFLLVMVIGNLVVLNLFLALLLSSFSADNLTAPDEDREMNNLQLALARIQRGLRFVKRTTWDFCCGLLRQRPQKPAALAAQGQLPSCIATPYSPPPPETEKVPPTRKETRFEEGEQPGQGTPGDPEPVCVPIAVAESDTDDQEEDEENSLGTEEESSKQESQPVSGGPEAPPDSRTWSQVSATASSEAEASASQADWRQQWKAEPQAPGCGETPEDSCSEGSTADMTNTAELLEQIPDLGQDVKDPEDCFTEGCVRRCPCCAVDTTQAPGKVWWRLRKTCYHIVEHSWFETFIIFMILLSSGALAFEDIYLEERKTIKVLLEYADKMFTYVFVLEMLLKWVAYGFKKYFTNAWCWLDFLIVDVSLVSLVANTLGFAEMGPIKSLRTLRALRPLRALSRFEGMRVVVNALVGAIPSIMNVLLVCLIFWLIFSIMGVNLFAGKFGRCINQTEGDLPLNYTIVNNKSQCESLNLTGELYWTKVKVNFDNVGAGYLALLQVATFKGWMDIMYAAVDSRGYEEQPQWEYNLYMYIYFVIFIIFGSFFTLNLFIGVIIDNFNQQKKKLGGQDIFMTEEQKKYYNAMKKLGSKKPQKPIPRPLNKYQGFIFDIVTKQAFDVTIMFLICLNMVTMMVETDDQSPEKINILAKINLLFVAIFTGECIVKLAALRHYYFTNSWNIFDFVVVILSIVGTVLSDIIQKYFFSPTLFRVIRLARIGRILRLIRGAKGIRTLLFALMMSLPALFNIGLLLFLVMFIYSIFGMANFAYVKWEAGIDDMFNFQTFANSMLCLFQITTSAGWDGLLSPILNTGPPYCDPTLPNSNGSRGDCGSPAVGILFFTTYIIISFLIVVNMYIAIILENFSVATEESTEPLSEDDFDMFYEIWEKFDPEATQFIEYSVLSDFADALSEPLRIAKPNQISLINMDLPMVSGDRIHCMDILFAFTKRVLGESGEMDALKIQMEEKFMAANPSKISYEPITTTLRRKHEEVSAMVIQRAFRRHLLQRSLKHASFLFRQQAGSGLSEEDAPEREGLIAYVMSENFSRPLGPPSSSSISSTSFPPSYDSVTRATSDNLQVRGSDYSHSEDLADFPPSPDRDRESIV
Protocol: To analyse the effect of the peptides designed in example 1 on INa and IK1, the cDNA that encodes SEQ ID NO: 3 or SEQ ID NO: 4, described in SEQ ID NO: 5 and 20, respectively, was cloned into a pcDNA3.1^(+)® vector (Invitrogen) for transfection of Chinese hamster ovary (CHO) cells that were in turn transfected with the cDNA that encodes the human Nav1.5 channels (SEQ ID NO: 21). The CHO cells were further co-transfected with the EBO-pcD leu 2 vector (0.5 µg), which encodes the expression of the CD8 surface antigen. The subsequent addition of anti-CD8 antibody, bonded to Dynabeads M450® microspheres, allowed the cells that had been transfected to be identified. […] The currents were recorded at 20-22°C using an Axopatch 200B amplifier, filtered at half the sampling frequency and stored in a computer for further analysis. […] The capacitive current artefacts generated after the application of pulses from 0 mV to +10 mV were recorded at 50 kHz (filtered at 10 kHz) to calculate the capacitance of the cell, the access resistance and the input impedance. […] INa was recorded by applying 50 ms pulses from a holding potential of -120 mV to potentials between -80 and +50 mV in 5 mV increments. […]

[2] = test system: dissociated cardiomyocytes from Sham and TAC mice; assay: Capacitance (cell size) of dissociated cardiomyocytes, murine TAC model of HFrEF; assay type: in vivo; details: TAC animals treated with DECA-11 (AAV9) vs. untreated TAC animals
Source text: A murine model of CI with reduced ejection fraction (HFrEF) was used to analyse the effect of SEQ ID NO: 3 on the decrease in INa and IK1 caused by electrical remodelling associated with Cl. The mice are subjected to transverse aortic constriction (TAC) with ligation, and pressure overload leads to the occurrence of cardiac hypertrophy and Cl. The mice were produced at the Medical Research Centre of the University of Navarra (CIMA), under the direction of Dr Aránzazu González Miqueo.
Eight-week-old mice were administered 3.5×10^10 particles of adeno-associated virus type 9 that encoded either the fluorescent reporter td-Tomato (Aav-dt-T) alone, or the reporter and the peptide DECA-11. At 12 weeks of age, an echocardiographic check-up (baseline) was performed and at week 13 they underwent surgery in which the aorta was ligated (TAC animals) or not (Sham animals).
That same week they were sent to the UCM animal facility. Next, the mice were heparinised and anaesthetised and then sacrificed by cervical dislocation, at a rate of one per day, and a thoracotomy was performed to remove the heart which was mounted through the aorta into a cannula connected to a Langendorff apparatus for enzymatic dissociation of the cardiac myocytes. […]

[3] = test system: human minimal promoter of the KCNJ2 gene; assay: Luciferase assay in hEK-293 cells, minimal promoter of KCNJ2; assay type: cell-based; details: hEK-293, co-transfected with cDNA SEQ ID NO: 5, 48 hours
Protocol: 48 hours after transfection, luciferase assays were performed using the LightSwitch Luciferase Assay reagent, also from Active Motif, and a Berthold luminometer. All assays were performed in triplicate and each point represents the mean of each technical triplicate.

Sequence | density of IK1 [1] | density of INa (human Nav1.5 channels) | capacitance of myocytes [2] | effect on the minimal promoter of the human KCNJ2 gene [3]
RFTRESLAAIE (listed as Homo sapiens) [SEQ ID NO: 3, 11-amino acid peptide, amino acids 15-25 of human Nav1.5] | significantly increase | significantly increase | significantly lower | –
RFTRESLAAIE [DECA-11, RFTRESLAAIE] | – | – | – | protranscriptional effect
